In patent US12714706B2, “Methods of treating small cell lung cancer with lurbinectedin formulations” (PHARMA MAR, S.A., priority 2019, dated 2026):
Converted amounts (≈) assume the structure as drawn. “And” between values parts separate entries of the source, which are not always exact repeats. Equal entries are not always repeated.

Columns and labels:
[1] = Phase 2 trial of lurbinectedin monotherapy: plasma pharmacokinetics; type: in vivo; settings: human, intravenous, 3.2 mg/m^2 as 1-hour infusion
Procedure: The plasma PK of lurbinectedin was evaluated during Cycles 1 and 2 in all treated patients. The sampling schedule is shown in Table 15 and Table 16, respectively.
PK analysis of plasma-concentration-time data of lurbinectedin was performed using non-linear mixed-effects modeling and/or non-compartment analysis.

[2] = test system: advanced solid tumors; assay: Phase 1 dose escalation of lurbinectedin plus irinotecan: MTD, RD and dose limiting toxicities; type: in vivo, human
Procedure: A clinical study of lurbinectedin in combination with irinotecan for patients afflicted with solid tumors was carried out. […] Patients were enrolled following a standard 3+3 dose escalation design. Phase Ib/II expansion part at the recommended dose (RD) was performed to explore efficacy in indications where antitumor activity signal was observed.
Three weeks was defined as one treatment cycle.
Primary outcome measures were (1) maximum tolerated dose (MTD) and (2) recommended dose (RD). MTD was defined as lowest dose explored during dose escalation which one third or more of evaluable patients develop DLT in Cycle 1. RD was defined as highest dose level explored during dose escalation in which fewer than one third of evaluable patients develop DLT during Cycle 1.

[3] = test system: SCLC; assay: Post-hoc exploratory analysis of response in SCLC patients who had previously received immunotherapy; type: in vivo, human; settings: for Lurbinectedin treatment: OS / Lurbinectedin treatment: DoR / Lurbinectedin treatment: PFS: individual SCLC patients with prior immunotherapy
Text: Post-hoc exploratory analysis was done on the response in patients who had previously received immunotherapy (n=8).

[4] = physchem; settings: pH 4, aqueous buffer
Procedure: (§1) Bulk solutions of phosphate, acetate, citrate, lactate and succinate buffers were prepared to determine maximum solubility of lurbinectedin.

[5] = test system: SCLC; assay: Phase 2 trial of lurbinectedin monotherapy in SCLC: antitumor activity (ORR, DOR, PFS, OS; RECIST v1.1); type: in vivo, human
[6] = test system: SCLC; assay: as above; type: in vivo, human; remark: listed apart in the source
Procedure: A clinical study of lurbinectedin monotherapy for patients collectively afflicted with SCLC who have refractory or resistant disease, as defined herein, was carried out. In this clinical single-arm, multi-center, open-label, phase 2 trail, a cohort of 105 patients, who had measurable disease, including patients whose SCLC was unresponsive to first-line platinum-containing chemotherapy (cisplatin, carboplatin or oxaliplatin) (refractory) and patients whose SCLC recurred within or equal to 90 days after cessation of first-line therapy (resistant), were treated with lurbinectedin at a dosage of 3.2 mg/m^2 given intravenously over a period of 1 hour every 21 days. Lurbinectedin was provided as a sterile isotonic aqueous solution for IV infusion as described below.
Starting dose was 3.2 mg/m^2. Dose was capped at body surface area of […] (e.g. dose not allowed to exceed 6.4 mg). Patients received lurbinectedin i.v. as a one-hour infusion on Day 1 every three weeks until disease progression or unacceptable toxicity. Three weeks was defined as one treatment cycle.
The primary objective of this study was to assess the antitumor activity of lurbinectedin in terms of overall response rate (ORR) as primary endpoint and supported by duration of response (DOR) as secondary endpoint. ORR was assessed using RECIST v1.1. on a set of measurable lesions identified at baseline as target lesions or as non-target lesions (if any), and followed until disease progression (PD) by an appropriate method.
Radiological tumor assessment (CT scan or MRI) was performed at baseline, and every 6 weeks from the onset of the study treatment until cycle 6 or evidence of PD, and every 9 weeks thereafter. If an objective response was observed, according to RECIST v1.1., it had to be confirmed by the same method at least four weeks after the date of the first documentation of response.
ORR was defined as the percentage of evaluable patients with a confirmed response, either complete (CR) or partial response (PR), from the start of treatment to the date of progression or the start of a subsequent therapy or end of patients follow-up according to RECIST v1.1. DOR was calculated […], recurrence, or death due to any cause in the responder patients. The date of response, the date of radiological or clinical PD, according to the investigator assessment and the independent assessment by an independent review committee (IRC), and the date of death was registered and documented, as appropriate. The IRC determined the patient's best response and assigned the date of first documentation of response and progression/censoring according to RECIST v1.1.
Counts and percentages, with their corresponding exact 95% confidence intervals were calculated for the binominal endpoints (i.e. ORR, clinical benefit). Time-to-event variables (OS, PFS, and DOR) and their set time estimates (i.e. PFS4/6 and OS6/12) were analyzed according to Kaplan-Meier method. The evaluation of the efficacy endpoints evaluated by IA and IRC were analyzed and compared.

[7] = Maximum solubility of lurbinectedin in different molarities of lactic acid; type: physicochemical; settings: lactic acid solution, aqueous buffer
Procedure: As such, in embodiments, a concentrated lurbinectedin solution is prepared in organic acid before addition of other excipients. In preferred embodiments, the organic acid has a pH less than 4, preferably less than 3.5, more preferably less than 3, or around 3. The maximum solubility of lurbinectedin was investigated in different molarities of the organic acid lactic acid. […] In a preferred embodiment, lurbinectedin is dissolved in an organic acid with a molarity of around 0.1M to 0.5M, preferably around 0.2M to 0.4M, more preferably around 0.3M organic acid. An exemplary molarity is 0.31M organic acid.

[8] = Maximum solubility of lurbinectedin in various buffers pH 4 (impact of buffer molarity)
Procedure: as §1

[9] = lurbinectedin D1 q3w with irinotecan 75 mg/m2 D1 & D8 q3w
[10] = resistant disease, listed as Lurbinectedin
[11] = chemotherapy-free interval 90 days or longer (sensitive)
[12] = chemotherapy-free interval less than 90 days (resistant)

COc1ccc2[nH]c3c(c2c1)CCN[C@]31CS[C@@H]2c3c(OC(C)=O)c(C)c4c(c3[C@H](COC1=O)N1[C@@H]2[C@H]2c3c(cc(C)c(OC)c3O)C[C@@H]([C@@H]1O)N2C)OCO4 [lurbinectedin, Lurbinectedin]
AUC(0-inf) [1]: ~551 ng·h/mL | Cmax ([1]; read-out: Mean total plasma Cmax): ~107 ng/mL | DLTs/Evaluable patients ([2]; Dose Level 1: lurbinectedin 1.0 mg/m2 D1 + irinotecan 75 mg/m2 D1 & D8, q3w): 1/6 | DLTs/Evaluable patients ([2]; Dose Level 2: lurbinectedin 1.5 mg/m2 D1 + irinotecan 75 mg/m2 D1 & D8, q3w): 1/4 | DLTs/Evaluable patients ([2]; Dose Level 3 (without G-CSF): lurbinectedin 2.0 mg/m2 D1 + irinotecan 75 mg/m2 D1 & D8, q3w): 4/11 | DLTs/Evaluable patients ([2]; Dose Level 3* (with G-CSF): lurbinectedin 2.0 mg/m2 D1 + irinotecan 75 mg/m2 D1 & D8, q3w): 3/12 | DLTs/Evaluable patients ([2]; Dose Level 4* (with G-CSF): lurbinectedin 2.4 mg/m2 D1 + irinotecan 75 mg/m2 D1 & D8, q3w): 2/3 | MTD with G-CSF (lurbinectedin dose) [2, 9]: 2.4 mg/m2 | MTD without G-CSF (lurbinectedin dose) [2, 9]: 2.0 mg/m2 | RD with G-CSF (lurbinectedin dose) [2, 9]: 2.0 mg/m2 | Lurbinectedin treatment: OS ([3]; resistant disease): 12.6 months | Lurbinectedin treatment: DoR [3, 10]: 5.6 months and 5.3 months and 5.1 months | Lurbinectedin treatment: OS [3, 10]: 12.0 months and 4.9 months and 14.9 months and 6.9+ months | Lurbinectedin treatment: PFS [3, 10]: 6.0 months and 1.3 months and 8.3 months and 6.9 months and 6.3 months | Lurbinectedin treatment: DoR ([3]; sensitive disease): 6.4 months and 2.8 months | Lurbinectedin treatment: OS ([3]; sensitive disease): 9.3 months and 10.8 months and 2.3 months | Lurbinectedin treatment: PFS ([3]; sensitive disease): 7.6 months and 4.7 months and 1.3 months | Response to single-agent lurbinectedin in patients who had previously received immunotherapy ([3]; post-hoc, n=8): trend for a better response | solubility ([4]; monopotassium phosphate buffer): 210 µg/mL (≈ 268 µM) | solubility ([4]; sodium acetate buffer): 940 µg/mL (≈ 1200 µM) | solubility ([4]; sodium citrate buffer): 930 µg/mL (≈ 1180 µM) | solubility ([4]; sodium lactate buffer): 900 µg/mL (≈ 1150 µM) | solubility ([4]; sodium succinate buffer): 970 µg/mL (≈ 1240 µM) | Overall response rate (CR + PR) ([5]; IRC assessment, overall (n = 105)): 30.5% | Duration of response, median ([5]; IRC assessment, resistant disease (CTFI <90 days)): 4.8 months | Overall response rate (CR + PR) ([5]; IRC assessment, resistant disease (CTFI <90 days, n = 45)): 13.3% | Duration of response, median ([5]; IRC assessment, sensitive disease (CTFI ≥90 days)): 5.3 months | Overall response rate (CR + PR) ([5]; IRC assessment, sensitive disease (CTFI ≥90 days, n = 60)): 43.3% | Duration of response, median ([5]; Investigator assessment, overall): 5.3 months | Duration of response, median ([5]; Investigator assessment, resistant disease (CTFI <90 days)): 4.7 months | Duration of response, median ([5]; Investigator assessment, sensitive disease (CTFI ≥90 days)): 6.2 months | Overall response rate (CR + PR) ([5]; Investigator assessment, sensitive disease (CTFI ≥90 days, n = 60)): 45.0% | Median progression-free survival ([5]; Investigator-assessed, overall population): 3.5 months | Patients alive at 1 year after the first dose ([5]; chemotherapy-free interval 90 days or longer (n = 60)): 48% | Median overall survival [5, 11]: 11.9 months | Median progression-free survival [5, 11]: 4.6 months | Median overall survival ([5]; overall population): 9.3 months | Median overall survival of patients with initial objective response (post-hoc) ([5]; responders with sensitive disease): 15.8 months | Median overall survival of patients with initial objective response (post-hoc) ([6]; 37 responders, overall population): 12.6 months | Duration of response, median ([6]; IRC assessment, overall): 5.1 months | Overall response rate (CR + PR) ([6]; Investigator assessment, resistant disease (CTFI <90 days, n = 45)): 22.2% | Patients alive at 1 year after the first dose ([6]; chemotherapy-free interval less than 90 days (n = 45)): 16% | Median overall survival [6, 12]: 5.0 months | Median progression-free survival [6, 12]: 2.6 months | Disease progression with new lesions in the CNS ([6]; of 94 patients who discontinued lurbinectedin): 9% | Median overall survival of patients with initial objective response (post-hoc) ([6]; responders with resistant disease): 10.9 months | solubility ([7]; 0.05M lactic acid): 7.2 mg/mL (≈ 9170 µM) | solubility ([7]; 0.5M lactic acid): 90.4 mg/mL (≈ 115000 µM) | Lurbinectedin maximum solubility ([8]; Monopotassium phosphate buffer pH 4, 0.06-01 M): 0.32 mg/mL | Lurbinectedin maximum solubility ([8]; Sodium acetate buffer pH 4, 0.06-01 M): 0.86 mg/mL | Lurbinectedin maximum solubility ([8]; Sodium lactate buffer pH 4, 0.06-01 M): 0.92 mg/mL
